Holding throughout (type): cell-based
In one experiment the test system is lymphoma cell line DB. Nature of the experiment: Standard 6-day growth-death assay, DB. To be noted: single agent or fixed 1:1 combination; for EC50 / IC50: 144 h; for EC50: average of n=2, read-out: dEC50; for IC50: average of n=2, read-out: gIC50; for Ymin-T0 / gIC100: average of n=2. As for the experimental part:
(§1) The majority cell lines were obtained from GSK BioCat group, American Type Culture Collection (ATCC), or the Deutsche Sammlung von Mikroorganismen and Zellbulturen (DSMZ). All cell lines were maintained in growth medium in T75 cm^2 flasks, incubated at 37° C. with 5% CO2 and split every 3 to 4 days. Growth media conditions and cell line information are detailed in Table 1. Cells were counted using the Vi-Cell Analyzer (Beckman Coulter ViCell) to obtain viable cell counts.
(§2) Optimal cell seeding density was determined for all cell lines by monitoring proliferation over a range of seeding densities in 384-well format and identifying the seeding density at which cells grew logarithmically throughout six days. 50 uL of cells per well were plated in 384-well plates at the optimal seeding density in preferred supplemented culture media. Three plates were prepared per cell line and incubated overnight at 37° C. in 5% CO2.
(§3) In these studies, lymphoma cell lines were treated with PRMT5 inhibitor, compound A and BCL-2 targeted inhibitor, ABT-199 single agent or in combination using a fixed 1:1 ratio of each inhibitor over a 20-point titration. For compound A single and fixed 1:1 ratio combination with ABT-199 cell proliferation assay, cells were treated in duplicate with a 20-point, two-fold dilution series of Compound A, ABT-199 (≥14 μM top dose) single or combo treatment, and ≤0.15% DMSO final concentration. Plates were incubated for six days at the conditions described above. Cell growth was measured using CellTiter-Glo (Promega) and luminescence signal was detected with a BioTek Synergy Neo microplate reader. A plate of untreated cells was read at the time of compound/biologic addition to determine the T0 value representing the starting number of cells. Data were fit with a four-parameter equation to generate a concentration response curve using Assay Client software.
(§4) Results were background corrected by subtraction of values from wells containing no cells, expressed as a percentage of the T0 value (value at time=0), and plotted against compound concentration. The T0 value was normalized to 100% and represents the number of cells present at the time of compound addition. The cellular response was determined for each compound using a 4- or 6-parameter curve fit of cell viability against concentration using Assay Client software. Growth IC50 (gIC50) values correspond to the concentration intersecting the mid-point of the growth window (between DMSO and T0 values). Growth IC100 (gIC100) values correspond to the concentration at which 100% growth inhibition is achieved, based on the growth window. The Ymin−T0 value, a measure of net population cell growth or death, is calculated by subtracting the T0 value (100%) from the Ymin value (%) that is determined from the fit of the concentration response curve. Death EC50 (dEC50) values correspond to the concentration at which 50% net cell death is observed.
(§5) Individual curves were quality checked for three criteria: outlier data points, cell growth (population doubling ≥1.5), and proper curve fitting. […] Individual curves were QC checked for outlier data points, cell growth (population doubling ≥1.5), and proper curve fitting. Obvious outlier data points were omitted only as needed to ensure proper curve fit.
(§6) For fixed ratio screening, combination activity was assessed by the fold change in gIC50 compared to the 2 single agent curves by dividing the compound ratio as necessary. Combinations showing >3-fold and >5-fold change from single agent are described as below: • Fold changes ≥5 are considered to represent strong synergy. • Fold changes between 3.0 and 4.9 are considered to represent weak synergy. • Fold changes <3 are considered to represent no synergy.

The subject of experiment [1] is lymphoma cell line DOHH-2. Nature of the experiment: Standard 6-day growth-death assay, DOHH-2. The following applies: single agent or fixed 1:1 combination; for EC50 / IC50: Homo sapiens, 144 h; for EC50: average of n=2, read-out: dEC50; for IC50: average of n=2, read-out: gIC50; for Ymin-T0 / gIC100: average of n=2. As for the experimental part: as §1, §2, §3, §4, §5, §6

For experiment [2], the system named is lymphoma cell line SU-DHL-4. Description: Standard 6-day growth-death assay, SU-DHL-4. To be noted: single agent or fixed 1:1 combination; for EC50 / IC50: Homo sapiens, 144 h; for EC50: average of n=2, read-out: dEC50; for IC50: average of n=2, read-out: gIC50; for Ymin-T0 / gIC100: average of n=2. As to the method: as §1, §2, §3, §4, §5, §6
Experiment [3] has as its system lymphoma cell line JV-M2*. Description: Standard 6-day growth-death assay, JV-M2*. The following applies: single agent or fixed 1:1 combination; for IC50: average of n=2, read-out: gIC50; for Ymin-T0 / gIC100: average of n=2. As to the method:
as §1, §2, §3, §4, §5, §6

Another experiment deals with Z-138. Description: Standard 6-day growth-death assay, Z-138 as control for Compound A. The following applies: single agent or fixed 1:1 combination; for EC50 / IC50: Homo sapiens, 144 h; for EC50: average of n=2, read-out: dEC50; for IC50: average of n=2, read-out: gIC50; for Ymin-T0 / gIC100: average of n=2. As for the experimental part: as §1, §2, §3, §4, §5, §6

`CC1(C)CCC(CN2CCN(c3ccc(C(=O)NS(=O)(=O)c4ccc(NCC5CCOCC5)c([N+](=O)[O-])c4)c(Oc4cnc5[nH]ccc5c4)c3)CC2)=C(c2ccc(Cl)cc2)C1` [ABT-199, venetoclax, reference compound]: the EC50 was over 14700 nM in the experiment with lymphoma cell line DB; 1820 nM in experiment [1]; 13000 nM in experiment [2]; 9080 nM in experiment [3] (Homo sapiens, JVM-2, 144 h, average of n=2, read-out: dEC50); 3120 nM in the experiment on Z-138. The IC50 came out at 2480 nM in the experiment on lymphoma cell line DB; 51 nM in experiment [1]; 673 nM in experiment [2]; 27 nM in experiment [3] (Homo sapiens, JVM-2, 144 h); 14 nM with Z-138. The Ymin-T0 with lymphoma cell line DB is 449%; in experiment [1], −69%; in experiment [2], 316%; in experiment [3], −63%; in the experiment on Z-138 it was −78%. Further, the gIC100 was over 14.7 µM in the experiment with lymphoma cell line DB; 2897 nM in experiment [1]; 12.485 µM in experiment [2]; 1607 nM in experiment [3]; 1119 nM in the experiment with Z-138.

For `O=C(NC[C@H](O)CN1CCc2ccccc2C1)c1ccnc(NC2CCC2)c1` [Compound A], the EC50 in the experiment on lymphoma cell line DB was over 14700 nM; in experiment [1] it was 1940 nM; in experiment [2] it was over 14700 nM; with Z-138, 794 nM. For the same molecule, the IC50 in the experiment with lymphoma cell line DB stood at 862 nM; in experiment [1], 41 nM; in experiment [2], 743 nM; in experiment [3] (Homo sapiens, JVM-2, 144 h) it was 139 nM; with Z-138 it was 38 nM. Besides, the Ymin-T0 in the experiment with lymphoma cell line DB is 194%; in experiment [1] it was −100%; in experiment [2], 1083%; in experiment [3] it was −14%; with Z-138, −93.1%. Further, the gIC100 in the experiment on lymphoma cell line DB is over 14.7 µM; in experiment [1], 1474 nM; in experiment [2], 14.663 µM; in experiment [3], 2211 nM; in the experiment on Z-138 it was 453 nM.

These data come from patent publication US20210386738A1, “COMBINATION OF PRMT5 INHIBITORS AND BCL-2 INHIBITORS” (GLAXOSMITHKLINE INTELLECTUAL PROPERTY DEVELOPMENT LIMITED, priority 2018, published 2021).
